From US11040035B2, “3-oxo-2,6-diphenyl-2,3-dihydropyridazine-4-carboxamides” (BAYER PHARMA AKTIENGESELLSCHAFT, priority 2016, dated 2021)

Target: T1, AHR (Homo sapiens, UniProt P35869)
T1 sequence (P35869 11-848): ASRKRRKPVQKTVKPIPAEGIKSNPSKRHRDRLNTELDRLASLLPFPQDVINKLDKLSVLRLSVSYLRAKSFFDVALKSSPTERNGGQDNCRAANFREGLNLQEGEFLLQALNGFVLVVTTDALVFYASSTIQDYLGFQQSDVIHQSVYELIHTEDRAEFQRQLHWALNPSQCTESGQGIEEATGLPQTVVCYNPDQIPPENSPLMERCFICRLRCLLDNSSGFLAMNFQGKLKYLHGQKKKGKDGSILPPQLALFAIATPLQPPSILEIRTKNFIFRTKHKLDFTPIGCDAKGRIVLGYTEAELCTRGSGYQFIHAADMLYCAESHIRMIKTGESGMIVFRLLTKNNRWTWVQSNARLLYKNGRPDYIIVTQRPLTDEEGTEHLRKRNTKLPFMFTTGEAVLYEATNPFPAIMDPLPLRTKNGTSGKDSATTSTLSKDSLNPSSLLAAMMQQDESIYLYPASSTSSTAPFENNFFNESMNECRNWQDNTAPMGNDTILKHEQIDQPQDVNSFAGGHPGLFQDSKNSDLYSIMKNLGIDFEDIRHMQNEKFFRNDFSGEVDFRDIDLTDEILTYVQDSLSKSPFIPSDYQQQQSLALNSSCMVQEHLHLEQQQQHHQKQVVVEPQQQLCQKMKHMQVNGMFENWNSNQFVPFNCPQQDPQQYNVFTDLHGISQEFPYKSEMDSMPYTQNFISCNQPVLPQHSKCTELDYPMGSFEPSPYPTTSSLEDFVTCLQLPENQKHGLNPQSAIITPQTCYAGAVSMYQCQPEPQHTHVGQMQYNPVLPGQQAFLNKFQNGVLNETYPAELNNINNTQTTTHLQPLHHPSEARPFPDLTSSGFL
Assay: In vitro assay 1: antagonism in human cell line (transactivation assay, kynurenic acid prestimulated)
Details: Assay 1: AHR-luc Hum Antagonism IC50 [M], 150 μM kynurenic acid, 20 hours, firefly luciferase

Compound	IC50
O=C(NC(CO)C1CCCO1)c1cc(-c2ccc(Cl)cc2)nn(-c2cccc(F)c2)c1=O (single isomer, unassigned) [Example 319, 1,4-anhydro-5-({[6-(4-chlorophenyl)-2-(3-fluorophenyl)-3-oxo-2,3-dihydropyridazin-4-yl]carbonyl}amino)-2,3,5-trideoxyhexitol]	5.02e-08 M
O=C(NC(CO)C1CCCO1)c1cc(-c2ccc(C(F)(F)F)cc2)nn(-c2cccc(F)c2)c1=O (single isomer, unassigned) [Example 353, 1,4-anhydro-2,3,5-trideoxy-5-[({2-(3-fluorophenyl)-3-oxo-6-[4-(trifluoromethyl)phenyl]-2,3-dihydropyridazin-4-yl}carbonyl)amino]hexitol]	2e-08 M
O=C(NC(CO)C1CCCO1)c1cc(-c2ccc(Cl)cc2)nn(-c2cccc(F)c2)c1=O (single isomer, unassigned) [Example 317, 1,4-anhydro-5-({[6-(4-chlorophenyl)-2-(3-fluorophenyl)-3-oxo-2,3-dihydropyridazin-4-yl]carbonyl}amino)-2,3,5-trideoxyhexitol]	1.77e-07 M
CCC(CO)NC(=O)c1cc(-c2ccc(C)c(C)c2)nn(-c2cccc(F)c2)c1=O (stereo not drawn) [Example 85, 6-(3,4-dimethylphenyl)-2-(3-fluorophenyl)-N-(1-hydroxybutan-2-yl)-3-oxo-2,3-dihydropyridazine-4-carboxamide]	8.61e-08 M
CC[C@H](CO)NC(=O)c1cc(-c2ccc(C)c(C)c2)nn(-c2cccc(F)c2)c1=O [Example 87, 6-(3,4-dimethylphenyl)-2-(3-fluorophenyl)-N-[(2R)-1-hydroxybutan-2-yl]-3-oxo-2,3-dihydropyridazine-4-carboxamide]	7.26e-07 M
O=C(NC(CO)C1CCCO1)c1cc(-c2ccc(C(F)(F)F)cc2)nn(-c2cccc(F)c2)c1=O (single isomer, unassigned) [Example 354, 1,4-anhydro-2,3,5-trideoxy-5-[({2-(3-fluorophenyl)-3-oxo-6-[4-(trifluoromethyl)phenyl]-2,3-dihydropyridazin-4-yl}carbonyl)amino]hexitol]	1.41e-08 M
Cc1ccc(-c2cc(C(=O)NCCO)c(=O)n(-c3cccc(F)c3)n2)cc1 [Example 19, 2-(3-Fluorophenyl)-N-(2-hydroxyethyl)-6-(4-methylphenyl)-3-oxo-2,3-dihydropyridazine-4-carboxamide]	3.91e-07 M
CC(NC(=O)c1cc(-c2ccc(C(F)(F)F)cc2)nn(-c2cccc(F)c2)c1=O)C(O)C(F)(F)F (single isomer, unassigned) [Example 268, Isomer no. 1 of 2-(3-fluorophenyl)-3-oxo-N-(4,4,4-trifluoro-3-hydroxybutan-2-yl)-6-[4-(trifluoromethyl)phenyl]-2,3-dihydropyridazine-4-carboxamide]	> 2e-05 M

Continued, values first:

IC50	Compound
4.05e-08 M	Cc1ccc(-c2cc(C(=O)N[C@H](CO)C(C)C)c(=O)n(-c3ccccc3)n2)cc1 [Example 71, N-[(2S)-1-hydroxy-3-methylbutan-2-yl]-6-(4-methylphenyl)-3-oxo-2-phenyl-2,3-dihydropyridazine-4-carboxamide]
5.14e-07 M	CC(C)C[C@@H](CO)NC(=O)c1cc(-c2ccc(Cl)cc2)nn(-c2cccc(Cl)c2)c1=O [Example 61, 2-(3-Chlorophenyl)-6-(4-chlorophenyl)-N-[(2S)-1-hydroxy-4-methylpentan-2-yl]-3-oxo-2,3-dihydropyridazine-4-carboxamide]
2.82e-07 M	CC(CO)NC(=O)c1cc(-c2ccc(Cl)cc2)nn(-c2ccccc2)c1=O (stereo not drawn) [Example 79, 6-(4-chlorophenyl)-N-(1-hydroxypropan-2-yl)-3-oxo-2-phenyl-2,3-dihydropyridazine-4-carboxamide]
1.12e-06 M	C[C@H](CO)NC(=O)c1cc(-c2ccc(Cl)cc2)nn(-c2ccccc2)c1=O [Example 81, 6-(4-chlorophenyl)-N-[(2R)-1-hydroxypropan-2-yl]-3-oxo-2-phenyl-2,3-dihydropyridazine-4-carboxamide]
